Measurements: PubChem BioAssay AID248 (DTP/NCI, 2004)
Values joined by “and” are separate entries in the source; they are usually repeats but may differ in a detail not shown here. Equal entries are not always repeated. Inconclusive results and toxic doses are left out. No stated cut-off is given here; in the data, active means T/C of 150% or more; inactive means T/C below 125%.

Test system: L1210 leukemia ip in BDF1 mice, survival T/C
Assay: NCI In Vivo Anticancer Drug Screen. Data for tumor model L1210 Leukemia (intraperitoneal) in B6D2F1 (BDF1) mice
Details: endpoint: mean survival time, higher = longer survival
Summary of the method: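 Value reflects the ratio of survival in compound-treated mice to survival in vehicle-treated controls, with both groups carrying the same transplanted tumor.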

[1] = dose: 100.0 mg/kg/injection, schedule: Q01DX001 (ip), vehicle: carboxymethylcellulose (CMC)
[2] = dose: 200.0 mg/kg/injection, schedule: Q01DX001 (ip), vehicle: carboxymethylcellulose (CMC)
[3] = dose: 100.0 mg/kg/injection, schedule: Q04DX003 (ip), vehicle: Klucel (hydroxypropylcellulose) (HPC)
[4] = dose: 100.0 mg/kg/injection, schedule: Q04DX003 (ip), vehicle: saline with Tween-80
[5] = dose: 200.0 mg/kg/injection, schedule: Q04DX003 (ip), vehicle: saline with Tween-80
[6] = dose: 12.5 mg/kg/injection, schedule: Q01DX009 (ip), vehicle: Klucel (hydroxypropylcellulose) (HPC)
[7] = dose: 25.0 mg/kg/injection, schedule: Q01DX009 (ip), vehicle: Klucel (hydroxypropylcellulose) (HPC)
[8] = dose: 25.0 mg/kg/injection, schedule: Q04DX003 (ip), vehicle: Klucel (hydroxypropylcellulose) (HPC)
[9] = dose: 50.0 mg/kg/injection, schedule: Q01DX009 (ip), vehicle: Klucel (hydroxypropylcellulose) (HPC)
[10] = dose: 50.0 mg/kg/injection, schedule: Q04DX003 (ip), vehicle: Klucel (hydroxypropylcellulose) (HPC)
[11] = dose: 100.0 mg/kg/injection, schedule: Q01DX009 (ip), vehicle: saline with Tween-80
[12] = dose: 200.0 mg/kg/injection, schedule: Q01DX009 (ip), vehicle: saline with Tween-80
[13] = dose: 400.0 mg/kg/injection, schedule: Q01DX009 (ip), vehicle: saline with Tween-80
[14] = dose: 50.0 mg/kg/injection, schedule: Q04DX003 (ip), vehicle: saline with Tween-80

Measured: T/C

Cc1ccccc1N=NN(C)C
inactive: [1] 106 % of control | [2] 106 % of control

Cc1ccc(N2CCN(CCCN3CCN(c4ccc(Cl)cc4)CC3)CC2)cc1
inactive: dose: 8.0 mg/kg/injection, schedule: Q01DX Z (ip), vehicle: carboxymethylcellulose (CMC) 98 % of control | dose: 16.0 mg/kg/injection, schedule: Q01DX Z (ip), vehicle: carboxymethylcellulose (CMC) 95 % of control | [3] 109 % of control

Cc1ccc(NC(=O)Oc2ccc3ccccc3c2)c([N+](=O)[O-])c1
inactive: [4] 99 % of control | [5] 99 % of control | dose: 400.0 mg/kg/injection, schedule: Q04DX003 (ip), vehicle: saline with Tween-80 89 % of control

CN(C)Cc1ccccc1COC(=O)c1ccc(Cl)cc1
inactive: dose: 75.0 mg/kg/injection, schedule: Q04DX002 (ip), vehicle: saline 102 % of control | dose: 150.0 mg/kg/injection, schedule: Q04DX002 (ip), vehicle: saline 94 % of control | dose: 300.0 mg/kg/injection, schedule: Q04DX002 (ip), vehicle: saline 96 % of control

CC1=CCC(=O)C2(C)CC(O)C(C(C)C(=O)O)C=C12 (stereo not drawn)
inactive: dose: 100.0 mg/kg/injection, schedule: Q04DX003 (ip), vehicle: acetone 97 % of control | dose: 200.0 mg/kg/injection, schedule: Q04DX003 (ip), vehicle: acetone 95 % of control | dose: 400.0 mg/kg/injection, schedule: Q04DX003 (ip), vehicle: acetone 105 % of control

CN(C(=O)CCl)c1ccccc1
inactive: [6] 92 % of control | [7] 98 % of control | [8] 104 % of control | [9] 93 % of control | [10] 98 % of control | [3] 88 % of control

Cc1sc(=S)n(CC(=O)O)c1C
inactive: [11] 93 % of control | [12] 93 % of control | [13] 92 % of control

CC(=O)OCc1c[n+]([O-])c(C)c(OC(C)=O)c1COC(C)=O
inactive: dose: 25.0 mg/kg/injection, schedule: Q04DX003 (ip), vehicle: saline 101 % of control | dose: 50.0 mg/kg/injection, schedule: Q04DX003 (ip), vehicle: saline 101 % of control

O=C(O)CCCCCCCCCCN1C(=O)CCC1=O
inactive: dose: 100.0 mg/kg/injection, schedule: Q04DX003 (ip), vehicle: carboxymethylcellulose (CMC) 98 % of control | dose: 200.0 mg/kg/injection, schedule: Q04DX003 (ip), vehicle: carboxymethylcellulose (CMC) 92 % of control | dose: 400.0 mg/kg/injection, schedule: Q04DX003 (ip), vehicle: carboxymethylcellulose (CMC) 104 % of control

CC(=O)NC(N)=NCCCC(N)C(=O)O (stereo not drawn)
inactive: dose: 75.0 mg/kg/injection, schedule: Q04DX003 (ip), vehicle: Klucel (hydroxypropylcellulose) (HPC) 91 % of control | dose: 150.0 mg/kg/injection, schedule: Q04DX003 (ip), vehicle: Klucel (hydroxypropylcellulose) (HPC) 94 % of control | dose: 300.0 mg/kg/injection, schedule: Q04DX003 (ip), vehicle: Klucel (hydroxypropylcellulose) (HPC) 94 % of control

CC(C)C(=O)Oc1ccc(-c2ccccc2)cc1
inactive: dose: 100.0 mg/kg/injection, schedule: Q04DX002 (ip), vehicle: Klucel (hydroxypropylcellulose) (HPC) 93 % of control | dose: 200.0 mg/kg/injection, schedule: Q04DX002 (ip), vehicle: Klucel (hydroxypropylcellulose) (HPC) 100 % of control | dose: 400.0 mg/kg/injection, schedule: Q04DX002 (ip), vehicle: Klucel (hydroxypropylcellulose) (HPC) 100 % of control

Cc1cc(N(CCCl)CCCl)ccc1C=Nc1cc(Br)c(O)c(Br)c1
inactive: [1] 96 % of control | [2] 94 % of control | dose: 400.0 mg/kg/injection, schedule: Q01DX001 (ip), vehicle: carboxymethylcellulose (CMC) 102 % of control

CN1CCc2cc3c(cc2C(=O)Cc2ccc4c(c2C1)OCO4)OCO3
inactive: dose: 25.0 mg/kg/injection, schedule: Q04DX003 (ip), vehicle: saline with Tween-80 103 % of control | [14] 97 % of control | [1] 100 % of control | [4] 102 % of control

C/C(=C\c1ccccc1)[N+](=O)[O-]
inactive: dose: 1.0 mg/kg/injection, schedule: Q04DX003 (ip), vehicle: Klucel (hydroxypropylcellulose) (HPC) 106 % of control | dose: 4.0 mg/kg/injection, schedule: Q01DX009 (ip), vehicle: Klucel (hydroxypropylcellulose) (HPC) 104 % of control | dose: 8.0 mg/kg/injection, schedule: Q01DX009 (ip), vehicle: Klucel (hydroxypropylcellulose) (HPC) 89 % of control | [6] 98 % of control | dose: 12.5 mg/kg/injection, schedule: Q04DX003 (ip), vehicle: Klucel (hydroxypropylcellulose) (HPC) 101 % of control | dose: 16.0 mg/kg/injection, schedule: Q01DX009 (ip), vehicle: Klucel (hydroxypropylcellulose) (HPC) 107 % of control | dose: 20.0 mg/kg/injection, schedule: Q04DX003 (ip), vehicle: Klucel (hydroxypropylcellulose) (HPC) 101 % of control | [7] 102 % of control and 104 % of control | [8] 116 % of control | dose: 32.0 mg/kg/injection, schedule: Q01DX009 (ip), vehicle: Klucel (hydroxypropylcellulose) (HPC) 100 % of control | dose: 40.0 mg/kg/injection, schedule: Q04DX003 (ip), vehicle: Klucel (hydroxypropylcellulose) (HPC) 95 % of control | [9] 101 % of control and 113 % of control | [10] 106 % of control | dose: 64.0 mg/kg/injection, schedule: Q01DX009 (ip), vehicle: Klucel (hydroxypropylcellulose) (HPC) 110 % of control | dose: 80.0 mg/kg/injection, schedule: Q04DX003 (ip), vehicle: Klucel (hydroxypropylcellulose) (HPC) 100 % of control

S=c1[nH]c2ccccc2o1
inactive: [11] 93 % of control | dose: 100.0 mg/kg/injection, schedule: Q04DX003 (ip), vehicle: other 101 % of control | [12] 100 % of control | dose: 200.0 mg/kg/injection, schedule: Q04DX003 (ip), vehicle: other 93 % of control | dose: 400.0 mg/kg/injection, schedule: Q04DX003 (ip), vehicle: other 96 % of control

Cc1c2cnccc2c(C)c2c1c1ccccc1n2CCNCc1ccccc1
inactive: [14] 87 % of control | [4] 94 % of control | [5] 103 % of control

O=[N+]([O-])c1ccc(N/N=C(\CBr)c2ccccc2)c([N+](=O)[O-])c1
inactive: [11] 94 % of control | [12] 95 % of control | [13] 94 % of control

CC1(C)[C@@H]2CC[C@]1(C)[C@@H](O)C2
inactive: dose: 100.0 mg/kg/injection, schedule: Q01DX001 (ip), vehicle: Klucel (hydroxypropylcellulose) (HPC) 104 % of control | [3] 102 % of control | dose: 200.0 mg/kg/injection, schedule: Q01DX001 (ip), vehicle: Klucel (hydroxypropylcellulose) (HPC) 96 % of control | dose: 200.0 mg/kg/injection, schedule: Q04DX003 (ip), vehicle: Klucel (hydroxypropylcellulose) (HPC) 102 % of control | dose: 400.0 mg/kg/injection, schedule: Q01DX001 (ip), vehicle: Klucel (hydroxypropylcellulose) (HPC) 93 % of control | dose: 400.0 mg/kg/injection, schedule: Q04DX003 (ip), vehicle: Klucel (hydroxypropylcellulose) (HPC) 97 % of control
